Results on 6 compounds are retold here after ChEMBL document CHEMBL4354814 (J Med Chem, 2019).

The target of test [1] is T1, Cannabinoid receptor 2 (Homo sapiens, UniProt P34972). Description: Agonist activity at CB2R in human U266 cells assessed as reduction in STAT3 gene expression at 50 uM incubated for 2 hrs by qRT-PCR analysis. The class given is cell-based.
Test [2] addresses T1, Cannabinoid receptor 2. Kind of test: Agonist activity at CB2R in human U266 cells assessed as reduction in MIF gene expression at 50 uM pretreated for 30 mins with AM630 and incubated for 2 hrs by qRT-PCR analysis. The format is cell-based.
The target in test [3] is T1, Cannabinoid receptor 2. Kind of test: Agonist activity at CB2R in human U266 cells assessed as reduction in STAT3 gene expression at 50 uM pretreated for 30 mins with AM630 incubated for 2 hrs by qRT-PCR analysis. The class given is cell-based. A general note: Real-time PCR tracks product formation cycle by cycle.
The target in test [4] is T1, Cannabinoid receptor 2. Description: Agonist activity at CB2R in human U266 cells assessed as reduction in MIF gene expression at 50 uM incubated for 2 hrs by qRT-PCR analysis. The format is cell-based.
Test [5] addresses Cannabinoid receptor 1 (Homo sapiens) (UniProt P21554). Kind of test: Agonist activity at human CB1R expressed in CHO-K1 cells assessed as increase in intracellular calcium mobilization by calcein4-AM dye based fluorescence assay. The format is functional, cell-based.
Test [6] has as its target T2, Acetylcholinesterase (Homo sapiens, UniProt P22303).
Description: Inhibition of recombinant human AChE assessed as inhibition constant for enzyme-inhibitor complex using acetylthiocholine iodide as substrate preincubated for 20 mins followed by substrate addition and measured for 3 mins by spectrophotometry based Lineweaver-Burk plot analysis
The target in test [7] is T2, Acetylcholinesterase. This is another data set of the same source.
Description: Inhibition of recombinant human AChE assessed as inhibition constant for enzyme-substrate-inhbitor complex using acetylthiocholine iodide as substrate preincubated for 20 mins followed by substrate addition and measured for 3 mins by spectrophotometry based Lineweaver-Burk plot analysis
Test [8] addresses T1, Cannabinoid receptor 2. Description: Agonist activity at human CB2R expressed in CHO-K1 cells assessed as increase in intracellular calcium mobilization by calcein4-AM dye based fluorescence assay relative to control. The format is functional, cell-based.
In test [9] the target is T1, Cannabinoid receptor 2. Description: biochemical.
Test [10] concerns the target Cholinesterase (Homo sapiens) (UniProt P06276). Kind of test: Inhibition of human BChE at 10 uM using butyrylthiocholine iodide as substrate preincubated for 20 mins followed by substrate addition and measured for 3 mins by spectrophotometry based Ellman's method relative to control. (Ellman's reagent forms a yellow product with free thiols.)
In test [11] the target is T2, Acetylcholinesterase. Kind of test: Inhibition of recombinant human AChE at 10 uM using acetylthiocholine iodide as substrate preincubated for 20 mins followed by substrate addition and measured for 3 mins by spectrophotometry based Ellman's method relative to control.
Test [12] addresses Cannabinoid receptor 1 (Homo sapiens) (UniProt P21554). Description: Binding affinity at human CB1R expressed in CHO cells at 10 uM incubated for 3 hrs by microbeta scintillation counting relative to control. The format is cell-based.
Test [13] deals with T1, Cannabinoid receptor 2.

pEC50, pKi: −log10 of the molar value. The source made the active and inactive calls. No cut-off for these calls is given here. Where only a bound is given, the exact number is not on record here.

T1 sequence (P34972 whole entry): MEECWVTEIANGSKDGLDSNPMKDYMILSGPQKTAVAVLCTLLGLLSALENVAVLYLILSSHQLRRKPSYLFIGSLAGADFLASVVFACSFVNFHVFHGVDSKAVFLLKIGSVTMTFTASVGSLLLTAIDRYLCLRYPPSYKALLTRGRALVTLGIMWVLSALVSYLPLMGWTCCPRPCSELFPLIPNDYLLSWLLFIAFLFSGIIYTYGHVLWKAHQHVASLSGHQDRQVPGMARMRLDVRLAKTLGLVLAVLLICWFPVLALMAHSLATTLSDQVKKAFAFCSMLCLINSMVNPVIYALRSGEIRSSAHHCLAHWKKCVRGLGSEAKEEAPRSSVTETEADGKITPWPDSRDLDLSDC
T2 sequence (P22303 whole entry): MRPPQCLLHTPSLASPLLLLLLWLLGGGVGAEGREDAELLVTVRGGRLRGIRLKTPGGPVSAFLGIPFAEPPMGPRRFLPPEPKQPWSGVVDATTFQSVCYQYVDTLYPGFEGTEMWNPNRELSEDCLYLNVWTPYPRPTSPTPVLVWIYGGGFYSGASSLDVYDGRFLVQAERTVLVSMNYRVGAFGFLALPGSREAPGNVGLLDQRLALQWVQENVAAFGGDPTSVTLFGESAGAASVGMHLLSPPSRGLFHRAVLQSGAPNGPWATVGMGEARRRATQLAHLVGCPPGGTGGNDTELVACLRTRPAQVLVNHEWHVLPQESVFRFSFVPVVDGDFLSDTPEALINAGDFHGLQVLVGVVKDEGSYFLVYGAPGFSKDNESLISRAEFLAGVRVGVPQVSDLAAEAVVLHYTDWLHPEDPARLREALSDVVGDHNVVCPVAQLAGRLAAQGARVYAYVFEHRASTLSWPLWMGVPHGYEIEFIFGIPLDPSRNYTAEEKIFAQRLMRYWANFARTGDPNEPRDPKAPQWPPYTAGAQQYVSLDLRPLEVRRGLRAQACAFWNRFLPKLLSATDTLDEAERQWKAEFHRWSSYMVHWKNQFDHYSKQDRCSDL
Sequence of Cannabinoid receptor 1 (Homo sapiens) (P21554 whole entry): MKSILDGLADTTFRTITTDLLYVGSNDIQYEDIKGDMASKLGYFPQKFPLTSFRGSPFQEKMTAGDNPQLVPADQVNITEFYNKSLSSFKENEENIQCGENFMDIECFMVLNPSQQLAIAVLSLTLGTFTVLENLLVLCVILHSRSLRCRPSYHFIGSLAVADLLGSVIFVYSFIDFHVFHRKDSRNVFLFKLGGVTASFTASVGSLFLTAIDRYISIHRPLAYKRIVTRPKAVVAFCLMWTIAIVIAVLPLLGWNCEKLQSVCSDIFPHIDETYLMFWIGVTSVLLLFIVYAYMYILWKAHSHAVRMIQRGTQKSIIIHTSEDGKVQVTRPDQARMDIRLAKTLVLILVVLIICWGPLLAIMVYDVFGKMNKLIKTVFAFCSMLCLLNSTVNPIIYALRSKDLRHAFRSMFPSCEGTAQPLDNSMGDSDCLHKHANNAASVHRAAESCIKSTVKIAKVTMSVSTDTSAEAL
Sequence of Cholinesterase (Homo sapiens) (P06276 whole entry): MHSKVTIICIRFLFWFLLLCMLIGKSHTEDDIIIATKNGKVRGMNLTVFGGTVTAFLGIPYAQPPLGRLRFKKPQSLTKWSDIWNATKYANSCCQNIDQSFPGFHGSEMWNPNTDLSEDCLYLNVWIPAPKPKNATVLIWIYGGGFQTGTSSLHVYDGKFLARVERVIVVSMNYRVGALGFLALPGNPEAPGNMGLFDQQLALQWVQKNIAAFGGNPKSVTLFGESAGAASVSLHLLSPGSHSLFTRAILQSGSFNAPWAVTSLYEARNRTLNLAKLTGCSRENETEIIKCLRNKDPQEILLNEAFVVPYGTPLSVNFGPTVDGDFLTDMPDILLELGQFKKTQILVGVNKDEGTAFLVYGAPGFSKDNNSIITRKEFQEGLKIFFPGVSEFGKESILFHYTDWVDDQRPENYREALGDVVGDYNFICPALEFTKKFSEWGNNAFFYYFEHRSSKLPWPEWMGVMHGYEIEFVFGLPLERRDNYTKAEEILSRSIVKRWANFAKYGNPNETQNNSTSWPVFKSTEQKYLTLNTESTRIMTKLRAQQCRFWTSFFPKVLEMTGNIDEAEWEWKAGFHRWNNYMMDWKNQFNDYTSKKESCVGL

On to `CCOc1ccc(Cc2nc3cc(C(=O)NCCOCCOCCNc4c5c(nc6ccccc46)CCCC5)ccc3n2CCC(C)C)cc1`, for which the outcome at Cannabinoid receptor 2 [1], on Cannabinoid receptor 2 [2], at Cannabinoid receptor 2 [3] and at Cannabinoid receptor 2 [4] was Active.
With `CCOc1ccc(Cc2nc3cc(C(=O)N(CC)CC)ccc3n2CCCCCCNc2c3c(nc4ccccc24)CCCC3)cc1`, the outcome on Cannabinoid receptor 2 [1], on Cannabinoid receptor 2 [2], on Cannabinoid receptor 2 [3] and on Cannabinoid receptor 2 [4] was Active. The outcome in [5] was inactive. The pKi on Acetylcholinesterase [6] is 7.05; at Acetylcholinesterase [7], 6.69. In addition, at Cannabinoid receptor 2 [8], the Emax was 51%.
At Cannabinoid receptor 2 [9], `CCOc1ccc(Cc2nc3cc(C(=O)N(CC)CC)ccc3n2CCCNc2c3c(nc4ccccc24)CCCC3)cc1` showed a pKi of 4.51.
For the compound `CCOc1ccc(Cc2nc3cc(C(=O)N(CC)CC)ccc3n2CCC(C)C)cc1`, the result at Cannabinoid receptor 2 [1], on Cannabinoid receptor 2 [2], at Cannabinoid receptor 2 [3] and on Cannabinoid receptor 2 [4] was Active. The inhibition (in [10]; at Acetylcholinesterase [11]) was less than 10% each time. Moreover, the Activity in [12] is 24%.
`CCOc1ccc(Cc2nc3cc(C(=O)NCCCCNc4c5c(nc6ccccc46)CCCC5)ccc3n2CCC(C)C)cc1`: the result at Cannabinoid receptor 2 [1], on Cannabinoid receptor 2 [2], at Cannabinoid receptor 2 [3] and on Cannabinoid receptor 2 [4] was Active. Moreover, in test [5], the outcome was inactive. The same compound had a pEC50 at Cannabinoid receptor 2 [13] of 6.04. Besides, the Emax on Cannabinoid receptor 2 [8] was 39%.
With `CCOc1ccc(Cc2nc3cc(C(=O)NCCSSCCNc4c5c(nc6ccccc46)CCCC5)ccc3n2CCC(C)C)cc1`, the results for the pKi on Acetylcholinesterase [6] and at Acetylcholinesterase [7] were 7.78 and 7.55, respectively.

Broadly, the pKi is the negative decadic logarithm of the Ki, by convention in mol/L. A word on the Emax: it is the maximal effect, on the per cent scale that the assay sets. By inhibition is commonly meant the relative decrease from the control value, in per cent. As usually defined, the pEC50 is the EC50 on a negative log10 scale, so that one unit is a factor of ten.
